Laboratory results reported in publication PMC10508484, “Development and application of a PBPK modeling strategy to support antimalarial drug development” (CPT: Pharmacometrics & Systems Pharmacology, 2023).
“And” between values parts separate entries of the source, which are not always exact repeats. Equal values may be shown once. Read-outs that look alike come from different tables or passages of the source.

Columns and labels:
[1] = lumefantrine: ACD labs value; ref Charman et al., 2020 1; cited from earlier work
[2] = cited from earlier work
[3] = cited from earlier work; for fu: PBPK input
[4] = Hepatic / HLM intrinsic clearance, enzyme not defined; details: for fm additional / undefined metabolism: human
[5] = In vitro flags for victim and perpetrator properties conferring DDI liability; type: in vitro ADME, human; details: in vitro flag, mainly based on in vitro determinations
[6] = cited from earlier work; for CL renal: PBPK input, ref amodiaquine, DEAQ Winstanley et al., atovaquone Rolan et al., 1997 14, azithromycin Lalak et al., 1993 23, carboxyprimaquine Mihaly et al., 1985 26, chloroquine Walker et al., 1987 29, DHA EMA Website, 44, doxycycline Raghuram et al., 1982 48, Nguyen et al., 1989 49, mefloquine Schwartz et al., 1982 57, primaquine White, 1985 62, pyrimeth; for CL renal / CL PO: 1987 9, proguanil Jeppesen et al., 1997 34; for CL PO: clinically observed oral (in vivo) clearance, pyronaridine: blood, ref amodiaquine Winstanley et al., DEAQ Akande et al., 2015 8, Scarsi et al., 2014 35, Tarning et al., 2012 36, Orrell et al., 2008 37, DHA Na-Bangchang et al., 2004 42, lumefantrine Lefevre et al., 2002 52, Hoglund et al., 2015 53, mefloquine Charles et al., 2007 56, pyronaridine Jittama; for fe (fraction excreted unchanged in urine): in vivo
[7] = system: Caco-2 cells; details: calibrated against propranolol; plasma as medium for atovaquone and piperaquine; ref Charman et al., 2020 1; cited from earlier work
[8] = Fraction unbound in human liver microsomes (fumic); details: extrapolated from value measured at 0.4 mg/mL to 0.1 mg/mL, method of Austin et al., 2002
[9] = 2020 1, cited from earlier work
[10] = measured (0.4 mg/mL protein where stated); ref Charman et al., 2020 1; cited from earlier work
[11] = in vitro; details: human, plasma
[12] = PBPK simulation of drug-drug interactions (Simcyp V19); parameters: species or system human; details: for AUC ratios Sim/Obs: ratio of simulated to clinically observed AUC ratio
Text: Here, we provide three example applications where the available PBPK models were used to address questions relating to DDI assessment. […] Additional simulation methods are provided in Appendix S1.
(§1) All simulations, including the ones performed for the applications, were run using Version 19 of the Simcyp population-based PBPK simulator (Simcyp (Certara), Sheffield, UK) and unless stated otherwise, input parameters for all drugs are as specified (Supplementary Information Table S1). All simulations were run using ten virtual trials that were matched as closely as possible to the clinical study volunteers in terms of the number of subjects, their age, the proportion of males/females and according to the same study design.

[13] = cited from earlier work; remark: listed apart in the source
[14] = biological target: CYP3A4 (Homo sapiens, UniProt P08684)
Text: (§2) In nearly all cases the fraction of systemic elimination metabolised by a given enzyme (fm) determined in vitro was unavailable in the literature.

[15] = biological target: CYP2C19 (Homo sapiens, UniProt P33261); test: Metabolism by CYP2C19 (CLint, fm); type: in vitro ADME
Text: as §2

[16] = PBPK simulation of plasma Cmax and AUC (Simcyp V19); parameters: species or system human; details: single oral dose named in the block
Text: as §1
The available clinical PK data for performance verification of simulations was largely in healthy volunteers of either Caucasian or South-East Asian (Thai or Vietnamese) descent. For Caucasian subjects the default Sim-Healthy Volunteers virtual population was used without modification. […] The case study simulations presented in this paper used the Sim-Healthy Volunteers virtual population.

[17] = Blood to plasma ratio (B:P); details: PBPK input; 0.55 = no uptake into RBC for a haematocrit of 45%
[18] = 200 mg SD, 0-inf, ref Wattanagoon et al., 1987 17
[19] = DDI of the respective line of Table S3
[20] = ratio of simulated to clinically observed Cmax ratio, DDI of the respective line of Table S3
[21] = amodiaquine 600 mg SD (Day 6) + trimethoprim 160 mg QD (7 Days), ref Akande et al., 2015 1
[22] = from observed differences in metabolite formation, Jeppesen et al., 1997

Sequence of CYP3A4 (P08684 whole entry): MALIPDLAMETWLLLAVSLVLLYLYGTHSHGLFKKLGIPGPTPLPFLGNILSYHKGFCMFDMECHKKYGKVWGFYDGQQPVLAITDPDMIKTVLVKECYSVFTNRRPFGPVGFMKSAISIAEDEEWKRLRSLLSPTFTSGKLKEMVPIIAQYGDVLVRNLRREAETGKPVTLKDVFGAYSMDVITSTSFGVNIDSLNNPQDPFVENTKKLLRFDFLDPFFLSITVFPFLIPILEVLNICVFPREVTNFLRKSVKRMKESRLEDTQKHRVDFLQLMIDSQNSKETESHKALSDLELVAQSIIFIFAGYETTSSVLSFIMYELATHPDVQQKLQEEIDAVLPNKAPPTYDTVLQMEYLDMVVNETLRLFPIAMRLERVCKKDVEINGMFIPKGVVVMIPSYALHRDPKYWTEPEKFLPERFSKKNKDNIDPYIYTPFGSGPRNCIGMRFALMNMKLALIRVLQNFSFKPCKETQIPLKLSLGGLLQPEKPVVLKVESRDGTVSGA
Sequence of CYP2C19 (P33261 whole entry): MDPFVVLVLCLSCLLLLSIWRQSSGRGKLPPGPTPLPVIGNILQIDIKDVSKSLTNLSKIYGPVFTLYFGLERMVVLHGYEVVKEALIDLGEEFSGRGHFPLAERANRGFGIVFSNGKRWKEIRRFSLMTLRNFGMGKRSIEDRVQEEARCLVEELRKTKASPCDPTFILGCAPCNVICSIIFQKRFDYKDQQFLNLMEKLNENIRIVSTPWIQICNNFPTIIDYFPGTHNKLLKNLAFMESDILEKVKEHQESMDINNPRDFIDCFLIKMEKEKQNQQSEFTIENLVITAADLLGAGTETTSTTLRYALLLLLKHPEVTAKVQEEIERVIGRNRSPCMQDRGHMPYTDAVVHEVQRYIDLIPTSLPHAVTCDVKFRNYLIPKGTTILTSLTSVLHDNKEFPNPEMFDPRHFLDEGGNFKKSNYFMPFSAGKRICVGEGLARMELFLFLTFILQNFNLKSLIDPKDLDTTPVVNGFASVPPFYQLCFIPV

COc1ncnc(NS(=O)(=O)c2ccc(N)cc2)c1OC [Sulfadoxine, sulfadoxine]
Log D pH 7.4 [1]: -0.78 | AUC Obs ([2]; 500 mg SD, Caucasian, 0-inf, ref Weidekamm et al., 1982 35): 14168 µg·h/mL | Cmax Obs ([2]; 500 mg SD, Caucasian, ref Weidekamm et al., 1982 35): 63200 ng/mL | AUC Obs ([2]; 500 mg SD, South-East Asian, 0-inf, ref Sarikabhuti et al., 1988 44): 26689 µg·h/mL | Cmax Obs ([2]; 500 mg SD, South-East Asian, ref Sarikabhuti et al., 1988 44): 77000 ng/mL | AUC Obs ([2]; 500 mg weekly (20 weeks), 3360-3528 h, ref Schwartz et al., 1987 32): 12465 µg·h/mL | Cmax Obs ([2]; 500 mg weekly (20 weeks), ref Schwartz et al., 1987 32): 121000 ng/mL | AUC Obs ([2]; 1500 mg SD, 0-inf, ref Karunajeewa et al., 2009 43): 33284 µg·h/mL | Cmax Obs ([2]; 1500 mg SD, ref Karunajeewa et al., 2009 43): 142000 ng/mL | fu ([3]; ref Charman et al., 2020 1): 0.036 | fm additional / undefined metabolism [4]: 10% | Risk as a perpetrator [5]: None identified | Risk as a victim [5]: Renally cleared | CL renal [6]: 0.035 L/h | CL PO [6]: 0.039 L/h | fe (fraction excreted unchanged in urine) [6]: 90% | Caco-2 (Papp A-B) [7]: 15 10-6 cm/s

CC1(C)N=C(N)N=C(N)N1c1ccc(Cl)cc1 [Cycloguanil, cycloguanil]
fumic [8]: 0.911 | Log D pH 7.4 [1]: 1.1 | B:P ([9]; ref Charman et al.): 0.71 | AUC Obs ([2]; 200 mg QD (Day 14) EM, 0-24 h, ref Helsby et al., 1993 19): 3.17 µg·h/mL | AUC Obs ([2]; 200 mg QD (Day 14) PM, 0-24 h, ref Helsby et al., 1993 19): 1.19 µg·h/mL | AUC Obs ([2]; 200 mg SD EM, 0-72 h, ref Helsby et al., 1993 19): 2.35 µg·h/mL | AUC Obs ([2]; 200 mg SD PM, 0-72 h, ref Helsby et al., 1993 19): 0.983 µg·h/mL | AUC Obs [2, 18]: 0.661 µg·h/mL | Cmax Obs ([2]; 200 mg SD, ref Wattanagoon et al., 1987 17): 41 ng/mL | fu ([3]; ref Charman et al., 2020 1): 0.75 | fumic [10]: 0.72

CCNCc1cc(Nc2ccnc3cc(Cl)ccc23)ccc1O [DEAQ, desethylamodiaquine]
fraction unbound [11]: 0.26 | B:P ([9]; PBPK input, ref artemether Colussi et al., 1999 11, atovaquone Rolan et al., 1997 14, Beerahee, 1999 16, Charman et al., azithromycin Pene Dumitrescu et al., 2013 21, DEAQ Winstanley et al., 1987 9, proguanil weighted mean Helsby et al., 1993 61, Wattanagoon et al., 1987 63): 3 | AUC Obs ([2]; 600 mg QD (Day 3), 0-96 h, ref Scarsi et al., 2014 1): 14.571 µg·h/mL | Cmax Obs ([2]; 600 mg QD (Day 3), ref Scarsi et al., 2014 1): 495 ng/mL | AUC ratios Sim/Obs [12, 19]: 0.89 | Cmax ratios Sim/Obs [12, 20]: 1.00 | Main binding protein ([3]; ref amodiaquine, DEAQ Hietala, 2009 2, atovaquone Nixon et al., 2013 13, DHA Batty et al., 2004 41, mefloquine, tafenoquine (also AGP) Zsila et al., 2008 54): AGP | AUC ratio Obs [13, 21]: 0.874 | Cmax ratio Obs [13, 21]: 0.75 | CL renal [6]: 1.4 L/h | CL PO [6]: 32 L/h

[H]/N=C(\N/C(=N/[H])Nc1ccc(Cl)cc1)NC(C)C [Proguanil, proguanil]
fumic [8]: 0.66 | CLint CYP3A4 formation of cycloguanil [14]: 0.013 µL/min/pmol | fmCYP3A4 [14]: 3% | Cmax Obs ([2]; 200 mg QD (Day 14) EM, ref Helsby et al., 1993 19): 190 ng/mL | Cmax Obs ([2]; 200 mg QD (Day 14) PM, ref Helsby et al., 1993 19): 338 ng/mL | AUC Obs ([2]; 200 mg SD EM, 0-inf, ref Helsby et al., 1990 18): 3.396 µg·h/mL | Cmax Obs ([2]; 200 mg SD EM, ref Helsby et al., 1993 19): 209 ng/mL | AUC Obs ([2]; 200 mg SD PM, 0-inf, ref Helsby et al., 1990 18): 6.563 µg·h/mL | Cmax Obs ([2]; 200 mg SD PM, ref Helsby et al., 1993 19): 273 ng/mL | Cmax Obs ([2]; 200 mg SD, dose corrected to free base for simulations, ref Wattanagoon et al., 1987 17): 170 ng/mL | AUC Obs [2, 18]: 2.975 µg·h/mL | AUC ratios Sim/Obs [12, 19]: 1.01 and 0.80 | fm additional / undefined metabolism [4]: 25% | Additional Undefined metabolism ([4]; retrograde calculations): 13.46 µL/min/pmol | fmCYP2C19 ([15]; fraction metabolised used in the PBPK model (proguanil: total, all routes)): 36% | fmCYP2C19, additional [15, 22]: 9% | fmCYP2C19, formation of CPBG [15, 22]: 8% | fmCYP2C19, formation of cycloguanil [15, 22]: 17% | CLint CYP2C19 - additional ([15]; retrograde calculations): 1.25 µL/min/pmol | CLint CYP2C19-mediated formation of 4-Chlorphenylbiguanide (CPBG) ([15]; retrograde calculations): 1.07 µL/min/pmol | CLint CYP2C19-mediated formation of Cycloguanil ([15]; retrograde calculations from CL PO): 2.23 µL/min/pmol | Risk as a perpetrator [5]: CYP2D6 inhibitor | Risk as a victim [5]: Substrate of CYP2C19 and CYP3A4 | CL renal [6]: 26.64 L/h | CL PO [6]: 86.4 L/h | fe (fraction excreted unchanged in urine) [6]: 36% | Caco-2 (Papp A-B) [7]: 3.5 10-6 cm/s

CCCCN(CCCC)CC(O)c1cc(Cl)cc2c1-c1ccc(Cl)cc1/C2=C/c1ccc(Cl)cc1 (stereo not drawn) [Lumefantrine, lumefantrine]
fmCYP3A4 [14]: 40% | CLint CYP3A4 ([14]; microsomes): 0.9 µL/min/pmol | AUC Obs ([2]; 480 mg BID (Day 3) PM, 60-324 h, ref Huang et al., 2012 8): 418 µg·h/mL | AUC Obs ([2]; 480 mg BID (Day 3) PM, 62-480 h, ref Lefevre et al., 2002 7): 383 µg·h/mL | Cmax Obs ([2]; 480 mg BID (Day 3) PM, ref Huang et al., 2012 8): 11600 ng/mL | Cmax Obs ([2]; 480 mg BID (Day 3) PM, ref Lefevre et al., 2002 7): 10000 ng/mL | AUC Obs ([2]; 480 mg SD, 0-264 h, ref Lefevre et al., 2013 6): 236 µg·h/mL | AUC Obs ([2]; 480 mg SD, 0-inf, ref Lefevre et al., 2002 5): 207 µg·h/mL | Cmax Obs ([2]; 480 mg SD, ref Lefevre et al., 2002 5): 7910 ng/mL | Cmax Obs ([2]; 480 mg SD, ref Lefevre et al., 2013 6): 8920 ng/mL | Cmax ratios Sim/Obs ([12]; Day 7 concentrations, 480 mg BID (Day 22-24) + rifampicin 600 mg QD (Days 1-46)): 0.23 | Cmax ratios Sim/Obs [12, 20]: 0.61 and 0.92 and 1.08 and 1.06 | predicted AUC0-inf as % of the observed value [16]: approximately 66% | predicted Cmax as % of the observed value [16]: approximately 62% | fu ([3]; ref atovaquone Mepron Prescribing Information, 2008, Nixon et al., 2013 13, Rolan et al., 1997 14, azithromycin Foulds et al., 1990 20, chloroquine Ofori-Adjei et al., 1986 27, Walker et al., 1983 28, DHA Batty et al., 2004 41 (healthy volunteers), lumefantrine CDER submission 22-269, proguanil Wattanagoon et al., 1987 63, tafenoquine Dow et al., 2020 84): 0.003 | AUC reduction ([13]; human, in vivo): 56% | fm additional / undefined metabolism [4]: 60% | B:P [17]: 0.55 | Risk as a perpetrator [5]: CYP2D6 inhibitor | Risk as a victim [5]: Substrate of CYP3A4 | CL PO [6]: 3.5 L/h
